In patent publication US6689609B1, “Enhancing germination of plant somatic embryos by priming” (Cellfor Inc., priority 1999, dated 2004):

How the values were obtained:
[1] = system: interior spruce somatic embryos; assay: Plant growth regulators added to horticultural growing substrate after sowing: ex vitro germination and rooting of nutriprimed interior spruce somatic embryos; type: in vivo, Picea glauca (Moench) Voss x P. engelmannii Parry ex Engelm.; conditions: primed
Text: The second study assessing the effects of plant growth regulators on germination performance of nutriprimed somatic embryos involved additions of plant growth regulators to the horticultural growing substrates after the nutriprimed somatic embryos were sown ex vitro. In this study, somatic embryos from interior spruce genotypes 4-2809, 23-2672, and I-1026 were desiccated and stored as described for the first growth regulator study. Prior to nutripriming, genotype I-1026 was imbibed with a matripriming step which consisted of placing the desiccated embryos onto a screen, and then placing the screen on the surface of an agar substrate gelled with 3% phytogel foe 18 hrs. After this imbibition step was completed for genotype I-1026, all three genotypes were nutriprimed for 84 hr in 3% w/v sucrose m24GMD nutripriming solutions and then sown ex vitro into 400-cavity styrofoam miniplug trays filled with peat bound by a polymer (Grow-Tech Inc., San Bautista, Calif.). After sowing was completed, the nutriprimed embryo received exogenous applications of one of the treatments described in Table 8.3.
After the exogenous application of the plant growth regulator treatments, the blocks were placed onto a non-sterile high-humidity (≧95% RH) germination chamber for one week. Immediately after the trays containing ex vitro sown nutriprimed embryos were placed into the non-sterile high-humidity germination chamber, they were misted with m24GMD solution containing 3% w/v sucrose until the surfaces of the non-sterile growing substrates were well-wetted, and then at daily intervals for a period of 7 days. After the initial 7-day period in the non-sterile high-humidity germination environment, the trays were moved to a non-sterile misting chamber (RH ranged between 75-90%) for two more weeks of growth under an 18-hour photoperiod of […] PAR with day-night temperatures of 18-23° C. Daily applications of the m24GMD nutrient solution containing 3% w/v sucrose were misted onto the germinants through to the end of the two-week period in the misting chamber. Aseptic techniques or conditions were not used for application of the nutrient solutions, nor for the germination and growing environments during the 3-week culture period.
At the end of the three-week germination period, all survived germinants were counted and examined for root initiation. Germination and rooting percentages were calculated based on total number of embryos sown in each replicate.

[2] = system: interior spruce somatic embryos; assay: Plant growth regulators added to nutripriming solutions: ex vitro germination and rooting of interior spruce somatic embryos; type: in vivo, Picea glauca (Moench) Voss x P. engelmannii Parry ex Engelm.
Text: Mature somatic embryos of interior spruce (Picea glauca (Moench) Voss x P. engelmannii Parry ex Engelm.) genotypes 4-2809, 23-2672, and I-1026 were desiccated with the HRHT treatment. Genotype I-1026 was further desiccated at 85% RH for three days, then stored at −20C. Prior to nutripriming, genotype I-1026 was imbibed with a matripriming step which consisted of placing the desiccated embryos onto a screen, and then placing the screen on the surface of an agar substrate gelled with 3% phytogel for 18 hrs. After this imbibition step was completed for genotype I-1026, all three genotypes were nutriprimed for 84 hr in 3% w/v sucrose m24GMD nutripriming solutions amended with the plant growth regulators described in Table 8.1.
After the nutripriming step was completed, the nutriprimed somatic embryos were sown ex vitro into 400-cavity styrofoam miniplug trays filled with peat bound by a polymer (Grow-Tech Inc., San Bautista, Calif.). After sowing, the trays were placed into a non-sterile high-humidity (≧95% RH) germination chamber for one week. In both studies, immediately after the trays containing ex vitro sown nutriprimed embryos were placed into the non-sterile high-humidity germination chamber, they were misted with m24GMD solution containing 3% w/v sucrose until the surfaces of the non-sterile growing substrates were well-wetted, and subsequently at daily intervals for a period of 7 days. After the initial 7-day period in the non-sterile high-humidity germination environment, the trays were moved to a non-sterile misting chamber (RH ranged between 75-90%) for two more weeks of growth under an 18-hour photoperiod of […] PAR with day-night temperatures of 18-23° C. Daily applications of the m24GMD nutrient solution containing 3% w/v sucrose were misted onto the germinants through to the end of the two-week period in the misting chamber. Aseptic techniques or conditions were not used for application of the nutrient solutions, or for the germination and growing environments during the 3-week culture period.
At the end of the three-week germination period, all germinated embryos and seedlings were counted and examined for root initiation. Germination and rooting percentages were calculated based on total number of embryos sown in each replicate. The rooting percentage measures the plant conversion rate since the survived germinants can have perfectly elongated and formed shoot, but without root initiation.

[3] = genotype 4-2809, HRHT, IBA 0.2 μM
[4] = genotype 4-2809, HRHT, substrate given no regulator or IBA 0.1 μM alone, + BA 0.02 μM, + BA 0.02 μM + GA4/7 0.2 μM (so in the source), or + GA4/7 0.1 μM
[5] = genotype 23-2672, HRHT, IBA 0.2 μM
[6] = genotype 23-2672, HRHT, substrate given no regulator or IBA 0.1 μM alone, + BA 0.02 μM, + BA 0.02 μM + GA4/7 0.2 μM (so in the source), or + GA4/7 0.1 μM
[7] = genotype I-1026, 85% & frozen, IBA 0.2 μM
[8] = genotype I-1026, 85% & frozen, substrate given no regulator or IBA 0.1 μM alone, + BA 0.02 μM, + BA 0.02 μM + GA4/7 0.2 μM (so in the source), or + GA4/7 0.1 μM
[9] = genotype 4-2809, HRHT, IBA 0.1 μM in priming solution
[10] = genotype 4-2809, HRHT, priming solution with no regulator or IBA 0.05 μM alone, + BA 0.01 μM, + BA 0.01 μM + GA4/7 0.01 μM, or + GA4/7 0.05 μM
[11] = genotype 23-2672, HRHT, IBA 0.1 μM in priming solution
[12] = genotype 23-2672, HRHT, priming solution with no regulator or IBA 0.05 μM alone, + BA 0.01 μM, + BA 0.01 μM + GA4/7 0.01 μM, or + GA4/7 0.05 μM
[13] = genotype I-1026, 85% & frozen, IBA 0.1 μM in priming solution
[14] = genotype I-1026, 85% & frozen, priming solution with no regulator or IBA 0.05 μM alone, + BA 0.01 μM, + BA 0.01 μM + GA4/7 0.01 μM, or + GA4/7 0.05 μM

SMILES: O=C(O)CCCc1c[nH]c2ccccc12 [IBA, indole-butyric-acid]
- Germination % [1, 3]: 97.5 ± 1.4%
- Rooting % [1, 3]: 78.8 ± 7.5%
- Germination % [1, 4]: 92.5 ± 7.5%
- Rooting % [1, 4]: 75.0 ± 10.2%
- Germination % [1, 5]: 72.5 ± 10.9%
- Rooting % [1, 5]: 67.5 ± 10.1%
- Germination % [1, 6]: 72.5 ± 11. %
- Rooting % [1, 6]: 61.3 ± 13.4%
- Germination % [1, 7]: 80.0 ± 6.8%
- Rooting % [1, 7]: 65.0 ± 5.4%
- Germination % [1, 8]: 91.3 ± 5.5%
- Rooting % [1, 8]: 66.3 ± 3.7%
- Germination % [2, 9]: 68.8 ± 5.2%
- Rooting % [2, 9]: 51.3 ± 4.3%
- Germination % [2, 10]: 92.5 ± 6.0%
- Rooting % [2, 10]: 82.5 ± 6.0%
- Germination % [2, 11]: 82.5 ± 9.7%
- Rooting % [2, 11]: 72.5 ± 6.3%
- Germination % [2, 12]: 90.0 ± 3.5%
- Rooting % [2, 12]: 71.3 ± 6.6%
- Germination % [2, 13]: 88.8 ± 6.6%
- Rooting % [2, 13]: 58.8 ± 5.9%
- Germination % [2, 14]: 93.8 ± 2.4%
- Rooting % [2, 14]: 66.3 ± 4.7%
